Literature values, collected in paper PMC9292820 (British Journal of Clinical Pharmacology, 2021).

Columns and labels:
[1] = system: healthy male participants
angiotensin II (Ang‐II) = details: rats, bolus injection

| Substance | decrease in pupil/iris ratio (miosis) [1] | levels of angiotensin II (Ang‐II) (angiotensin II (Ang‐II)) |
| --- | --- | --- |
| buprenorphine | up to 50% | – |
| opiorphin (QRFSR; Opiorphin; UniProt Q99935 22-26, looked up) | – | increased levels |
